# According to patent US20140315738A1, “MARINE MEDAKA GENES RESPONDING TO THE EXPOSURE OF ENDOCRINE-DISRUPTING CHEMICALS, AND METHOD FOR DIAGNOSING AN AQUATIC ECO-SYSTEM CONTAMINATION USING SAME” (priority 2011, published 2014):
# System: Javanese medaka (Oryzias javanicus) livers
# Experiment: real-time quantitative PCR of liver gene expression after exposure to 17β-estradiol
# Format: in vivo
# Details: duration of exposure 24 hr, 100 μg/L, β-actin control gene
# Description: To 3 L beaker with 2 L filtered seawater therein, 10 male Javanese medaka bred in culture water tank were transported each time, and acclimated for 24 hr. […] Additionally, five Javanese medaka of Example <1-1> were exposed to BPA (76 μg/L) for 48 hr. […] The Javanese medaka was transported to ice water, one at a time, which momentarily stunned it, followed by beheading and evisceration and liver removal.
# Primers for real-time quantitative PCR (RT-PCR) for the above genes were designed and synthesized (Table 3).
# With RNA template extracted with the method of Example <2-1>, cDNA was synthesized using AB High Capacity RNA-to-cDNA Kit (Applied Biosystems, USA). RNA in the amount of 1 μg was seeded, added with distilled water and titrated to 9 μl. 2×RT buffer (10 μl), and 20× enzyme Mix 1 μl were mixed well, centrifuged and precipitated, and allowed to react at 37° C. for 60 min. The reactant was heated at 95° C. for 5 min, after which reaction was completed. The synthesized cDNA was stored at −20° C.
# To the 0.5 μg synthesized cDNA (corresponding to approximately 10 ng/μl), 0.8 primer pairs of corresponding genes (10 pmol/μl), and 2 SYBR1 mixture (10 μl) were added. The final amount was titrated to 20 μl using distilled water. At temperature condition of 95° C. 10 min, 95° C. 30 sec, 60° C. 30 sec, 72° C. 30 sec, 40 cycles of PCR were conducted.
structure (smiles),measurement,value
C[C@]12CC[C@@H]3c4ccc(O)cc4CC[C@H]3[C@@H]1CC[C@@H]2O [17β-estradiol],"Difference of expression level, Apolipoprotein B (SEQ ID 53)",2.5 times lower
same,"Difference of expression level, Cytochrome P450 1A (CYP1A) (SEQ ID 5)",2.7 times lower
same,"Difference of expression level, Glucose-6-phosphate dehydrogenase (SEQ ID 55)",2.2 times lower
same,"Difference of expression level, Glutamate dehydrogenase 1b (SEQ ID 54)",5.2 times lower
same,"Difference of expression level, Selenoprotein M (SEQ ID 8)",7.7 times higher
same,"Difference of expression level, Transferrin (SEQ ID 56)",3.6 times lower
same,"Difference of expression level, Vitellogenin 1 (SEQ ID 37)",59.1 times higher
